The values below are quoted from earlier work in article PMC9599640.

Each structure is given as a SMILES string.

Details of this data set: method as in PMID 27217383. The settings on record: phase I trial of abemaciclib.

Regarding `CCN1CCN(Cc2ccc(Nc3ncc(F)c(-c4cc(F)c5nc(C)n(C(C)C)c5c4)n3)nc2)CC1` [abemaciclib], the MTD is 200 mg BID.
